# Reference: patent US8114880B2, “Piperidine or piperazine substituted tetrahydro-naphthalene-1-carboxylic acid MTP inhibiting compounds” (Janssen Pharmaceutica N.V., priority 2006, dated 2012)
# Experiments:
# [1] = molecular target: MTP (Homo sapiens, UniProt P55157); experiment: MTP assay (triglyceride transfer from donor to acceptor vesicles); assay type: biochemical; settings: MTP activity, percent triglyceride transfer from donor to acceptor vesicles, 37° C.
# How it was run: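 Radiolabelled triglyceride transfer from donor vesicles (phosphatidylcholine, 7.5 mol % cardiolipin, 0.25 mol % glycerol tri[1-^14C]-oleate) to phosphatidylcholine acceptor vesicles with BSA, pH 7.5 Tris buffer; compounds in DMSO (0.13% final), 5 min preincubation at 37° C before MTP addition. Donor vesicles removed on DEAE-52; acceptor-supernatant ^14C counts give percent transfer.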
# [2] = tested on: HepG2 cells; experiment: Quantification of the secretion of ApoB; assay type: cell-based; settings: Homo sapiens, HepG2, 24 h, 24 hours of incubation, pIC50 = -log IC50
# Experimental: HepG2 cells were cultured in 24-well plates in MEM Rega 3 containing 10% fetal calf serum. At 70% confluency, the medium was changed and the test compound or carrier (DMSO, 0.4% final concentration) was added. After 24 hours of incubation, the medium was transferred to Eppendorf tubes and cleared by centrifugation. A sheep antibody directed against either apoB was added to the supernatant and the mixture was kept at 8° C. for 24 hours. Then, rabbit anti-sheep antibody was added and the immune complex was allowed to precipitate for 24 hours at 8° C. The immunoprecipitate was pelleted by centrifugation for 25 minutes at 1320 g and washed twice with a buffer containing 40 mM Mops, 40 mM NaH2PO4, 100 mM NaF, 0.2 mM DTT, 5 mM EDTA, 5 mM EGTA, 1% Triton-X-100, 0.5% sodium deoxycholate (DOC), 0.1% SDS, 0.2 μM leupeptin and 0.2 μM PMSF. Radioactivity in the pellet was quantified by liquid scintillation counting. The IC50 values are usually converted to pIC50 values (=−log IC50 value) for ease of use.
# MTP, sequence (P55157 19-894, species assumed): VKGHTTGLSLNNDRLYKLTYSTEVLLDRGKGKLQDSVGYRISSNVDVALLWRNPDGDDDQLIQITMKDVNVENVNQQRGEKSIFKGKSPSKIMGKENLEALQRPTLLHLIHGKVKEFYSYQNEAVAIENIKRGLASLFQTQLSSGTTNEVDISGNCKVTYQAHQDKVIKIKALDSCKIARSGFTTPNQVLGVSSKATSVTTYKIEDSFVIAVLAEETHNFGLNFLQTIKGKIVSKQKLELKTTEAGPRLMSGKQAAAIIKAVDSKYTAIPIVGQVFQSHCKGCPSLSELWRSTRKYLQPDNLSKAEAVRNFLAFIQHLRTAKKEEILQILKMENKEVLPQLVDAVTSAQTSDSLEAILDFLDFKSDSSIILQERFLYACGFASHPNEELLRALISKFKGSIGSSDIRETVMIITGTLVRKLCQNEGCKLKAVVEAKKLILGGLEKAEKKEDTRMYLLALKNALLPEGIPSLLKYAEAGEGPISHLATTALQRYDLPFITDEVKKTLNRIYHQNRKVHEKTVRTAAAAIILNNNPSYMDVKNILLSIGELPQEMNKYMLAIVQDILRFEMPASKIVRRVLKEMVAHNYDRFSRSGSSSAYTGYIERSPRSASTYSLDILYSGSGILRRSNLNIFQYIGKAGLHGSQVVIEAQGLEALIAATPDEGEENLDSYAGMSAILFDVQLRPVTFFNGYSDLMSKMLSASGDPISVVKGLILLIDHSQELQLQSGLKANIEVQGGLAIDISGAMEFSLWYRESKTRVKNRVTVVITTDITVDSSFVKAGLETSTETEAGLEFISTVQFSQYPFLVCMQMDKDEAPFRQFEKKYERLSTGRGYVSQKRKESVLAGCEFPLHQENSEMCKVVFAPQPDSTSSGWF
# MTP, sequence (P07237 18-508 partner, species assumed): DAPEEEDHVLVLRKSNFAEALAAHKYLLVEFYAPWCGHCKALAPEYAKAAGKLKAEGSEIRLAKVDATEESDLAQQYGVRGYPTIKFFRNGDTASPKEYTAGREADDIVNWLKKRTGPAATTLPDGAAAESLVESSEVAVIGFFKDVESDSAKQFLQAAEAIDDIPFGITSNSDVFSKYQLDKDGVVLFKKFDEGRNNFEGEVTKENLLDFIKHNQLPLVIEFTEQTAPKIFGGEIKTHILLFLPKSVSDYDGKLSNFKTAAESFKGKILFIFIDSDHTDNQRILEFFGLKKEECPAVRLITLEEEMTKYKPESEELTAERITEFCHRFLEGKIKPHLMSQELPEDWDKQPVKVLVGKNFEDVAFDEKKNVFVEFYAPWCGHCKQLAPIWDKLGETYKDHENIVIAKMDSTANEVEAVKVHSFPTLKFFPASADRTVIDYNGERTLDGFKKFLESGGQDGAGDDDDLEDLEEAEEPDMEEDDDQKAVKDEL
IC50 [1] [µM],IC50 [2] [µM],SMILES
0.0502,0.186,CCNC(=O)[C@]1(c2ccccc2)CC[C@@H](CN2CCC(NC(=O)c3ccccc3OC)CC2)c2ccccc21 [Co. No. 15]
0.0032,0.015,CCNC(=O)[C@]1(c2ccccc2)CC[C@@H](CN2CCC(NC(=O)c3ccccc3-c3ccc(C(F)(F)F)cc3)CC2)c2ccccc21 [Co. No. 16]
0.00463,0.00757,C=CCOC(=O)[C@]1(c2ccccc2)CC[C@@H](C(=O)N2CCC(NC(=O)c3ccccc3-c3ccc(C(F)(F)F)cc3)CC2)c2ccccc21 [Co. No. 19]
0.0126,0.0229,CCNC(=O)[C@]1(c2ccccc2)CC[C@@H](C(=O)N2CC[C@@H](NC(=O)c3ccccc3OC)[C@@H](OC)C2)c2ccccc21 [Co. No. 20]
0.00984,0.0276,CCNC(=O)[C@]1(c2ccccc2)CC[C@@H](C(=O)N2CCC(NC(=O)c3ccc(Cl)cc3OC)CC2)c2ccccc21 [Co. No. 21]
0.0289,0.155,CCNC(=O)[C@]1(c2ccccc2)CC[C@@H](C(=O)N2CCC(NC(=O)c3ccccc3C)CC2)c2ccccc21 [Co. No. 22]
0.0603,0.232,CCNC(=O)[C@]1(c2ccccc2)CC[C@@H](C(=O)N2CC[C@@H](NC(=O)c3cc(Cl)c(N)cc3OC)[C@@H](OC)C2)c2ccccc21 [Co. No. 23]
0.0548,0.202,CCOC(=O)[C@]1(c2ccccc2)CC[C@@H](C(=O)N2CCC(NC(=O)c3cc(Cl)c(N)cc3OC)CC2)c2ccccc21 [Co. No. 24]
0.0652,0.778,CCOC(=O)[C@]1(c2ccccc2)CC[C@@H](C(=O)N2CCN(C(=O)c3ccccc3OC)CC2)c2ccccc21 [Co. No. 27]
> 0.1,0.329,CCOC(=O)[C@]1(c2ccccc2)CC[C@@H](C(=O)N2CCN(C(=O)c3ccc(C)cc3-c3ccc(C(F)(F)F)cc3)CC2)c2ccccc21 [Co. No. 28]
> 1,> 1,CCOC(=O)[C@]1(c2ccccc2)CC[C@@H](C(=O)N2CCC(NC(=O)c3ccccc3)CC2)c2ccccc21 [Co. No. 33]
0.00116,0.00379,CCOC(=O)[C@@]1(c2ccccc2)CC[C@H](C(=O)N2CCC(NC(=O)c3ccccc3OC)CC2)c2ccccc21 [Co. No. 34]
1.71,5.37,CCOC(=O)[C@]1(c2ccccc2)CC[C@@H](C(=O)N2CCC(NC(=O)c3ccccc3OC)CC2)c2ccccc21 [Co. No. 35]
0.00347,0.0117,CCOC(=O)[C@@]1(c2ccccc2)CC[C@H](C(=O)N2CCC(NC(=O)c3ccccc3O)CC2)c2ccccc21 [Co. No. 36]
> 10,0.0706,COc1ccccc1C(=O)NC1CCN(C(=O)[C@H]2CC[C@](C(N)=O)(c3ccccc3)c3ccccc32)CC1 [Co. No. 40]
> 10,1,CCOC(=O)[C@]1(c2ccccc2)CC[C@@H](C(=O)N2CCC(NC(=O)c3ccccc3O)CC2)c2ccccc21 [Co. No. 42]
0.00237,0.0272,CCOC(=O)CNC(=O)[C@@]1(c2ccccc2)CC[C@H](C(=O)N2CCC(NC(=O)c3ccccc3OC)CC2)c2ccccc21 [Co. No. 47]
0.0133,9.77,CCOC(=O)CNC(=O)[C@]1(c2ccccc2)CC[C@@H](C(=O)N2CCC(NC(=O)c3ccccc3OC)CC2)c2ccccc21 [Co. No. 48]
0.0181,0.638,COC(=O)[C@]1(c2ccccc2)CC[C@@H](C(=O)N2CCC(NC(=O)c3cccc(OC)c3OC)CC2)c2ccccc21 [Co. No. 49]
0.0116,0.0161,COC(=O)[C@]1(c2ccccc2)CC[C@@H](C(=O)N2CCC(NC(=O)c3cc(OC)ccc3OC)CC2)c2ccccc21 [Co. No. 50]
0.0128,0.00951,COC(=O)[C@]1(c2ccccc2)CC[C@@H](C(=O)N2CCC(NC(=O)c3cc(C)ccc3OC)CC2)c2ccccc21 [Co. No. 51]
0.00964,0.0618,COC(=O)[C@]1(c2ccccc2)CC[C@@H](C(=O)N2CCC(NC(=O)c3cc(OC)ccc3OCC(F)(F)F)CC2)c2ccccc21 [Co. No. 53]
0.0104,0.0658,COC(=O)[C@]1(c2ccccc2)CC[C@@H](C(=O)N2CCC(NC(=O)c3ccccc3OC(F)F)CC2)c2ccccc21 [Co. No. 54]
0.0607,> 1,COC(=O)[C@]1(c2ccccc2)CC[C@@H](C(=O)N2CCC(NC(=O)c3c(O)cccc3OC)CC2)c2ccccc21 [Co. No. 55]

IC50 [1] [µM],IC50 [2] [µM],SMILES
0.00169,0.00224,COC(=O)[C@]1(c2ccccc2)CC[C@@H](C(=O)N2CCC(NC(=O)c3cccnc3OC)CC2)c2ccccc21 [Co. No. 56]
0.00568,0.0697,CCOc1ncccc1C(=O)NC1CCN(C(=O)[C@@H]2CC[C@](C(=O)OC)(c3ccccc3)c3ccccc32)CC1 [Co. No. 57]
0.149,0.00204,CCCOc1cccnc1C(=O)NC1CCN(C(=O)[C@@H]2CC[C@](C(=O)OC)(c3ccccc3)c3ccccc32)CC1 [Co. No. 58]
> 0.1,0.225,COC(=O)[C@]1(c2ccccc2)CC[C@@H](C(=O)N2CCC(NC(=O)c3cc(OC)nnc3OC)CC2)c2ccccc21 [Co. No. 59]
> 10,0.286,COC(=O)[C@]1(c2ccccc2)CC[C@@H](C(=O)N2CCC(NC(=O)c3cc(O)ccc3OC)CC2)c2ccccc21 [Co. No. 61]
0.000713,0.0421,COc1ccccc1C(=O)NC1CCN(C(=O)[C@H]2CC[C@@](C(=O)NCC(=O)OC(C)(C)C)(c3ccccc3)c3ccccc32)CC1 [Co. No. 62]
> 1,> 10,COc1ccccc1C(=O)NC1CCN(C(=O)[C@H]2CC[C@@](C(=O)NCC(=O)O)(c3ccccc3)c3ccccc32)CC1 [Co. No. 63]
0.00387,0.0178,COC(=O)CNC(=O)[C@@]1(c2ccccc2)CC[C@H](C(=O)N2CCC(NC(=O)c3ccccc3OC)CC2)c2ccccc21 [Co. No. 64]
0.00286,0.00798,COC(=O)CCNC(=O)[C@@]1(c2ccccc2)CC[C@H](C(=O)N2CCC(NC(=O)c3ccccc3OC)CC2)c2ccccc21 [Co. No. 65]
0.0202,> 1,CCOC(=O)[C@H](C)NC(=O)[C@@]1(c2ccccc2)CC[C@H](C(=O)N2CCC(NC(=O)c3ccccc3OC)CC2)c2ccccc21 [Co. No. 66]
0.0202,0.873,CCOC(=O)[C@@H](C)NC(=O)[C@@]1(c2ccccc2)CC[C@H](C(=O)N2CCC(NC(=O)c3ccccc3OC)CC2)c2ccccc21 [Co. No. 67]
0.0179,> 1,CCOC(=O)[C@@H](NC(=O)[C@@]1(c2ccccc2)CC[C@H](C(=O)N2CCC(NC(=O)c3ccccc3OC)CC2)c2ccccc21)C(C)C [Co. No. 68]
0.0244,0.154,CCOC(=O)[C@H](NC(=O)[C@@]1(c2ccccc2)CC[C@H](C(=O)N2CCC(NC(=O)c3ccccc3OC)CC2)c2ccccc21)C(C)C [Co. No. 69]
0.0353,> 1,CCOC(=O)[C@H](CC(C)C)NC(=O)[C@@]1(c2ccccc2)CC[C@H](C(=O)N2CCC(NC(=O)c3ccccc3OC)CC2)c2ccccc21 [Co. No. 70]
0.0107,> 1,CCOC(=O)C[C@H](NC(=O)[C@@]1(c2ccccc2)CC[C@H](C(=O)N2CCC(NC(=O)c3ccccc3OC)CC2)c2ccccc21)C(=O)OCC [Co. No. 72]
> 0.1,> 1,CCOC(=O)C[C@H](NC(=O)[C@@]1(c2ccccc2)CC[C@H](C(=O)N2CCC(NC(=O)c3ccccc3OC)CC2)c2ccccc21)C(=O)OC [Co. No. 73]
0.00508,> 1,CCOC(=O)CC[C@H](NC(=O)[C@@]1(c2ccccc2)CC[C@H](C(=O)N2CCC(NC(=O)c3ccccc3OC)CC2)c2ccccc21)C(=O)OCC [Co. No. 74]
0.00224,0.0202,COC(=O)[C@H](CCCCNC(=O)OC(C)(C)C)NC(=O)[C@@]1(c2ccccc2)CC[C@H](C(=O)N2CCC(NC(=O)c3ccccc3OC)CC2)c2ccccc21 [Co. No. 75]
0.0333,0.128,CCOC(=O)[C@H](NC(=O)[C@@]1(c2ccccc2)CC[C@H](C(=O)N2CCC(NC(=O)c3ccccc3OC)CC2)c2ccccc21)c1ccccc1 [Co. No. 79]
0.0701,0.548,CCOC(=O)[C@@H](NC(=O)[C@@]1(c2ccccc2)CC[C@H](C(=O)N2CCC(NC(=O)c3ccccc3OC)CC2)c2ccccc21)c1ccccc1 [Co. No. 80]
0.0126,> 1,CCOC(=O)[C@H](Cc1ccccc1)NC(=O)[C@@]1(c2ccccc2)CC[C@H](C(=O)N2CCC(NC(=O)c3ccccc3OC)CC2)c2ccccc21 [Co. No. 81]
0.0129,0.289,CCOC(=O)[C@@H](Cc1ccccc1)NC(=O)[C@@]1(c2ccccc2)CC[C@H](C(=O)N2CCC(NC(=O)c3ccccc3OC)CC2)c2ccccc21 [Co. No. 82]
0.0714,0.67,CCOC(=O)C1CCCCN1C(=O)[C@@]1(c2ccccc2)CC[C@H](C(=O)N2CCC(NC(=O)c3ccccc3OC)CC2)c2ccccc21 (stereo partly shown) [Co. No. 83]
